Results: patent US12723037B2, “Triazole derivative, method for preparing same, and use thereof” (SHENZHEN JIKANG PHARMACEUTICAL TECHNOLOGY CO., LTD., priority 2021, dated 2026)
Like-named read-outs stand apart in the source and are kept apart here.

Experiments:
[1] = In vivo toxicity assay in BALB/C mice (21 days, intragastric, once daily)
Description: IV. In Vivo Toxicity Assay of Candidate Compounds in BALB/C
25 BALB/C mice were randomly divided into the following 5 groups: solvent control group (Control), positive control KPT-8602 (30 mg/kg, once daily) group, KPT-8602 (60 mg/kg, once daily) group, compound I (30 mg/kg, once daily) group, and compound I (60 mg/kg, once daily) group, with 5 mice in each group. Each group was intragastrically given a test compound at a corresponding concentration at a dose of 3 mL/kg. KPT-8602 and compound I were administered daily for 21 consecutive days.

RPMI8226 cells = experiment: Cytotoxicity experiment (Cell-Titer, 72 h) in RPMI8226 cells; format: cell-based; details: for IC50: Homo sapiens, RPMI-8226, 72 h, Cell-Titer
Description: 4. Cytotoxicity Experiment
• (1) RPMI8226 cells in the logarithmic growth phase were added to a 384-well plate at 1000 cells/well in a volume of 18 μL/well and incubated at 37° C., 5% CO2 for 24 h. • (2) The test compound at a stock concentration of 10 mM was diluted 10-fold with DMSO and then 100-fold with a serum-free 1640 medium to give a dilution at a working concentration of 10 μM containing 1% DMSO. 10 concentrations were then obtained by 2-fold serial dilution using a serum-free 1640 medium containing 1% DMSO, with the tenth concentration point being a solvent control group (no drug). The diluted compound was added into the plated cell plate at 2 μL/well to give final compound concentrations from 1000 nM (2-fold gradient dilution, 10 concentration gradients), and 4 replicates were set for each concentration. 1% DMSO was used as a solvent control and KPT-8602 as a positive control. • (3) The cells were incubated at 37° C. for 72 h, and 10 μL of Cell-Titer assay reagent was added to each well, followed by incubation in a cell incubator for 10 min. • (4) The mixture was well mixed by shaking and then assayed by the Cell-Titer program running on a microplate reader. The inhibition % and IC50 values (μM) were calculated using GraphPad Prism 5.

[2] = Pharmacokinetic results of the drugs in SD rats; format: in vivo; details: for clearance: read-out: Cl s, spp
From the text: III. Pharmacokinetic Results of the Drugs in SD Rats

[3] = 30 mg/kg once daily, intragastric, 21 days
[4] = rat, in vivo, po (10 mg/kg), read-out: AUC0-inf

| SMILES | body weight change [1, 3] | cellular activity compared with KPT-8602 (RPMI8226 cells) | IC50 (RPMI8226 cells) [µM] | AUC0-inf ([2]; iv (2 mg/kg), in ng·h/mL) | AUC0-t ([2]; iv (2 mg/kg), in ng·h/mL) | Cl s, spp ([2]; po (10 mg/kg)) [L/h/kg] | MRT ([2]; rat, in vivo, iv (2 mg/kg)) [h] | half-life ([2]; rat, in vivo, iv (2 mg/kg)) [h] | clearance ([2]; rat, in vivo, iv (2 mg/kg)) [L/h/kg] | MRT ([2]; rat, in vivo, po (10 mg/kg)) [h] | Tmax ([2]; rat, in vivo, po (10 mg/kg)) [h] | bioavailability ([2]; rat, in vivo, po (10 mg/kg)) [%] | half-life ([2]; rat, in vivo, po (10 mg/kg)) [h] | AUC0-inf [2, 4] [µg·h/mL] | other results |
| --- | --- | --- | --- | --- | --- | --- | --- | --- | --- | --- | --- | --- | --- | --- | --- |
| CONC(=O)/C(=C/n1cnc(-c2cc(C(F)(F)F)cc(C(F)(F)F)c2)n1)c1cncnc1 [Compound I, (E)-3-(3-(3,5-Bis(trifluorometh-yl)phenyl)-1H-1,2,4-triazol-1-yl)-N-methoxy-2-(pyri-midin-5-yl)acrylamide] | body weights comparable to the blank | substantially equivalent to KPT-8602 | 0.37 | 1493 | 1301 | 2.63 | 2.49 | 4.23 | 1.45 | 7.65 | 0.25 | 55.9 | 5.59 | 3.89 | body weight change ([1]; 60 mg/kg once daily, intragastric, 21 days): body weights comparable to the blank; safety (overall conclusion) ([1]; 30 and 60 mg/kg once daily, 21 days): good safety; intravenous and oral AUCs compared with KPT-8602 ([2]; iv and po): much higher than those of KPT-8602; oral and intravenous half-lives compared with KPT-8602 ([2]; iv and po): longer than those of KPT-8602; oral half-life compared with KPT-8602 ([2]; po): about 2 times; Cmax ([2]; po (10 mg/kg)): 0.899 µg/mL; AUC0-t ([2]; rat, in vivo, po (10 mg/kg), read-out: AUC0-t): 3.21 µg·h/mL |
| O=C(NO)/C(=C/n1cnc(-c2cc(C(F)(F)F)cc(C(F)(F)F)c2)n1)c1cncnc1 [II, (E)-3-(3-(3,5-Bis(trifluorometh-yl)phenyl)-1H-1,2,4-triazol-1-yl)-N-hydroxy-2-(pyri-midin-5-yl)acrylamide] |  |  | 6.9 |  |  |  |  |  |  |  |  |  |  |  |  |
| CO/C(=N\C(C)(C)C)NC(=O)/C(=C/n1cnc(-c2cc(C(F)(F)F)cc(C(F)(F)F)c2)n1)c1cncnc1 [III, Methyl(Z)-N-((E)-3-(3-(3,5-bis(trifluoromethyl)phenyl)-1H-1,2,4-triazol-1-yl)-2-(py-rimidin-5-yl)acryloyl)-N′-(tert-butyl)carbamate] |  |  | 7.1 |  |  |  |  |  |  |  |  |  |  |  |  |
| CCONC(=O)/C(=C/n1cnc(-c2cc(C(F)(F)F)cc(C(F)(F)F)c2)n1)c1cncnc1 [IV, (E)-3-(3-(3,5-Bis(trifluorometh-yl)phenyl)-1H-1,2,4-triazol-1-yl)-N-ethoxy-2-(pyrimi-din-5-yl)acrylamide] |  | substantially equivalent to KPT-8602 | 0.54 |  |  |  |  |  |  |  |  |  |  |  |  |
| NC(=O)/C(=C/n1cnc(-c2cc(C(F)(F)F)cc(C(F)(F)F)c2)n1)c1cncnc1 [KPT-8602, reference compound] | significant decrease in body weight |  | 0.34 | 998 | 963 | 4.04 | 2.48 | 3.04 | 2.06 | 3.85 | 1 | 52 | 2.69 | 2.6 | mortality by day 10 ([1]; 60 mg/kg once daily, intragastric): all died; mice died on day 7 ([1]; 60 mg/kg once daily, intragastric, 5 mice per group): two; AUC0-t ([2]; po (10 mg/kg), in ng·h/mL): 2541; Cmax ([2]; rat, in vivo, po (10 mg/kg), read-out: Cmax): 0.72 µg/mL |
